Test system: A2780 cells
Experiment: Expression of the isolated cDNA fragment (differential display, RT-PCR) in A2780 cells treated with cytotoxic agents
Type: cell-based, human
Details: for expression of the cDNA fragment: A2780 cells after treatment with the compound
Description: Human ovary carcinoma A2780 cells were treated for 1 hour with an antitumor derivative of distamycin-A at its 50% growth-inhibiting concentration; at the end of the treatment and after 6 and 24 hours the total RNA was isolated by column extraction (SVTotal RNA, Promega Italia) and reverse-transcribed using poly-T primers as indicated in the differential-display kit (GenHunter). The fragments thus obtained were separated on denaturing polyacrylamide gel and detected by autoradiography. The bands whose intensity differed from controls were isolated and purified. One of them (fragment 1), after purification and ^32P-labeling (rediprime kit, Amersham), was used as probe in Northern Blot experiments. The RNA from the same cells was separated on agarose gel, transferred onto nylon membrane and hybridized with the probe.
Cells A2780 were treated with taxol and cisplatin (DDP) and the RNA was extracted before and 24 hours after the treatment. […] A fragment of beta-actin gene was used as internal control.

SMILES | expression of the cDNA fragment | specific mRNA band by RT-PCR versus control cells (A2780 cells, RNA 24 hours after treatment, beta-actin internal control)
CC(=O)O[C@H]1C(=O)[C@@]2(C)[C@H]([C@H](OC(=O)c3ccccc3)[C@]3(O)C[C@H](OC(=O)[C@H](O)[C@@H](NC(=O)c4ccccc4)c4ccccc4)C(C)=C1C3(C)C)[C@]1(OC(C)=O)CO[C@@H]1C[C@@H]2O [taxol] | increased production of the same fragment | –
N.N.[Cl][Pt][Cl] [cisplatin] | increased production of the same fragment | more intense than that of control cells
COc1cccc2c1C(=O)c1c(O)c3c(c(O)c1C2=O)C[C@@](O)(C(=O)CO)C[C@@H]3O[C@H]1C[C@H](N)[C@H](O)[C@H](C)O1 [doxorubicin] | increased production of the same fragment | –
O=c1[nH]cc(F)c(=O)[nH]1 [fluorouracil] | increased production of the same fragment | –

From patent US7189840B2, “Oncosuppressive gene” (Novuspharma S.p.A., priority 2001, dated 2007)
